Test results published in PubChem BioAssay AID330 (DTP/NCI, 2004).
Where “and” joins values, the source holds several entries; their conditions need not be identical. Identical values can stand only once. Toxic doses and inconclusive results are not listed. The calls were made as follows: active = survival T/C of 150% or more; inactive = T/C below 125% in these data.

Tested on: P388 leukemia ip, CD2F1 mice, survival T/C
Assay: NCI In Vivo Anticancer Drug Screen. Data for tumor model P388 Leukemia (intraperitoneal) in CD2F1 (CDF1) mice
Conditions: endpoint: median survival time, higher = longer survival
How it was run: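 Mice carrying the transplanted tumor received test compound or vehicle. Survival was recorded in each group, and the value is the treated-group measurement divided by that of the vehicle-treated control group.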

[1] = dose: 50.0 mg/kg/injection, schedule: Q01DX005 (ip), vehicle: saline with Tween-80
[2] = dose: 100.0 mg/kg/injection, schedule: Q01DX005 (ip), vehicle: saline with Tween-80
[3] = dose: 200.0 mg/kg/injection, schedule: Q01DX005 (ip), vehicle: saline with Tween-80
[4] = dose: 60.0 mg/kg/injection, schedule: Q01DX005 (ip), vehicle: saline with Tween-80
[5] = dose: 120.0 mg/kg/injection, schedule: Q01DX005 (ip), vehicle: saline with Tween-80
[6] = dose: 240.0 mg/kg/injection, schedule: Q01DX005 (ip), vehicle: saline with Tween-80
[7] = dose: 50.0 mg/kg/injection, schedule: Q01DX009 (ip), vehicle: saline
[8] = dose: 100.0 mg/kg/injection, schedule: Q01DX009 (ip), vehicle: saline
[9] = dose: 200.0 mg/kg/injection, schedule: Q01DX009 (ip), vehicle: saline
[10] = dose: 12.5 mg/kg/injection, schedule: Q01DX009 (ip), vehicle: saline
[11] = dose: 25.0 mg/kg/injection, schedule: Q01DX009 (ip), vehicle: saline
[12] = dose: 50.0 mg/kg/injection, schedule: Q01DX009 (ip), vehicle: Klucel (hydroxypropylcellulose) (HPC)
[13] = dose: 100.0 mg/kg/injection, schedule: Q01DX009 (ip), vehicle: Klucel (hydroxypropylcellulose) (HPC)
[14] = dose: 200.0 mg/kg/injection, schedule: Q01DX009 (ip), vehicle: Klucel (hydroxypropylcellulose) (HPC)

Measured: T/C

CC(C)n1ncc2c(N)ncnc21
inactive: dose: 3.75 mg/kg/injection, schedule: Q01DX009 (ip), vehicle: saline 100 % of control | dose: 7.5 mg/kg/injection, schedule: Q01DX009 (ip), vehicle: saline 95 % of control | dose: 15.0 mg/kg/injection, schedule: Q01DX009 (ip), vehicle: saline 104 % of control and 95 % of control

N#Cc1c(NC(=O)C(Cl)(Cl)Cl)sc2c1CCCC2
inactive: [1] 105 % of control | [2] 110 % of control | [3] 117 % of control

COC1C(C2CC(=O)NC(=O)C2)OC2OC(C)(C)OC21 (stereo not drawn)
inactive: [1] 104 % of control | [2] 107 % of control | [3] 104 % of control

O=[N+]([O-])c1cnccc1-n1nnc2ccccc21
inactive: [4] 96 % of control | [5] 96 % of control | [6] 104 % of control

COc1ccc(/C=C/c2ccc3ccccc3n2)c(OC)c1
inactive: dose: 100.0 mg/kg/injection, schedule: Q01DX009 (ip), vehicle: saline with Tween-80 100 % of control | dose: 200.0 mg/kg/injection, schedule: Q01DX009 (ip), vehicle: saline with Tween-80 100 % of control | dose: 400.0 mg/kg/injection, schedule: Q01DX009 (ip), vehicle: saline with Tween-80 100 % of control

CNC(=O)N(C)CP(=O)(CN(C)C(=O)NC)CN(C)C(=O)NC
inactive: [7] 97 % of control | [8] 100 % of control | [9] 99 % of control

O=C1C=C2C(=CCOC2O)O1 (stereo not drawn)
inactive: dose: 0.3 mg/kg/injection, schedule: Q01DX009 (ip), vehicle: saline with Tween-80 106 % of control | dose: 0.3 mg/kg/injection, schedule: Q04DX003 (ip), vehicle: saline with Tween-80 106 % of control | dose: 1.0 mg/kg/injection, schedule: Q04DX003 (ip), vehicle: saline with Tween-80 114 % of control | dose: 2.0 mg/kg/injection, schedule: Q01DX009 (ip), vehicle: Klucel (hydroxypropylcellulose) (HPC) 117 % of control and 123 % of control | dose: 4.0 mg/kg/injection, schedule: Q01DX009 (ip), vehicle: Klucel (hydroxypropylcellulose) (HPC) 106 % of control and 123 % of control | dose: 10.0 mg/kg/injection, schedule: Q04DX003 (ip), vehicle: saline with Tween-80 113 % of control

CCN(CC)c1ccc(N=Nc2ccc(C)cc2)cc1
inactive: [8] 89 % of control | [9] 103 % of control | dose: 400.0 mg/kg/injection, schedule: Q01DX009 (ip), vehicle: saline 90 % of control

C=CCOc1cc2c(cc1C/C=C\c1ccc(OC)cc1)OCO2
inactive: [4] 102 % of control | [5] 104 % of control | [6] 101 % of control

CN(OC(=O)C(C)(C)C)C(=O)C(C)(C)C
inactive: [2] 106 % of control | [3] 105 % of control | dose: 400.0 mg/kg/injection, schedule: Q01DX005 (ip), vehicle: saline with Tween-80 108 % of control

CC(C)c1ccc(C2OCC(C)(C)C(C(C)C)O2)cc1 (stereo not drawn)
inactive: dose: 100.0 mg/kg/injection, schedule: Q04DX003 (ip), vehicle: saline with Tween-80 108 % of control | dose: 200.0 mg/kg/injection, schedule: Q04DX003 (ip), vehicle: saline with Tween-80 105 % of control | dose: 400.0 mg/kg/injection, schedule: Q04DX003 (ip), vehicle: saline with Tween-80 109 % of control

CNC(=O)CC(N)C(=O)O (stereo not drawn)
inactive: [10] 96 % of control | [11] 94 % of control | [7] 101 % of control | dose: 50.0 mg/kg/injection, schedule: Q01DX009 (ip), vehicle: water 105 % of control | [8] 98 % of control | dose: 100.0 mg/kg/injection, schedule: Q01DX009 (ip), vehicle: water 105 % of control | [9] 113 % of control | dose: 200.0 mg/kg/injection, schedule: Q01DX009 (ip), vehicle: water 109 % of control

CC1=CCc2c(c(NS(=O)(=O)c3ccccc3)c3ccccc3c2NS(=O)(=O)c2ccccc2)C1
inactive: dose: 25.0 mg/kg/injection, schedule: Q01DX001 (ip), vehicle: saline with Tween-80 105 % of control | dose: 50.0 mg/kg/injection, schedule: Q01DX001 (ip), vehicle: saline with Tween-80 90 % of control | dose: 100.0 mg/kg/injection, schedule: Q01DX001 (ip), vehicle: saline with Tween-80 90 % of control

CC(=O)N1c2ccccc2N(C(C)=O)c2nc3ccccc3nc21
inactive: [12] 100 % of control | [13] 100 % of control | [14] 100 % of control

COc1ccc(C(C)(C)c2cc3c(cc2OC)OCO3)cc1
inactive: [4] 104 % of control | [5] 116 % of control

Nc1cc2ncccc2c2ccccc12
inactive: [7] 100 % of control and 98 % of control | [8] 109 % of control | [9] 106 % of control and 89 % of control

[Mn+2].[Mn+2].c1ccc2c(c1)-c1nc-2nc2[n-]c(nc3nc(nc4[n-]c(n1)c1ccccc41)-c1ccccc1-3)c1cc3c4nc5nc(nc6[n-]c(nc7nc(nc([n-]4)c3cc21)-c1ccccc1-7)c1ccccc61)-c1ccccc1-5
inactive: [4] 96 % of control | [5] 99 % of control | [6] 106 % of control

O=C(c1ccccc1)C1Nc2ccccc2CO1 (stereo not drawn)
inactive: dose: 60.0 mg/kg/injection, schedule: Q01DX005 (ip), vehicle: Klucel (hydroxypropylcellulose) (HPC) 99 % of control | dose: 120.0 mg/kg/injection, schedule: Q01DX005 (ip), vehicle: Klucel (hydroxypropylcellulose) (HPC) 107 % of control | dose: 240.0 mg/kg/injection, schedule: Q01DX005 (ip), vehicle: Klucel (hydroxypropylcellulose) (HPC) 97 % of control

COc1ccc(C(C)c2cc(C(C)(C)C)c(O)c(C(C)(C)C)c2)cc1 (stereo not drawn)
inactive: dose: 50.0 mg/kg/injection, schedule: Q01DX005 (ip), vehicle: distilled water + alcohol 103 % of control | dose: 100.0 mg/kg/injection, schedule: Q01DX005 (ip), vehicle: distilled water + alcohol 100 % of control | dose: 200.0 mg/kg/injection, schedule: Q01DX005 (ip), vehicle: distilled water + alcohol 105 % of control

CC12CC(CS(=O)C1)c1ccccc1N2 (stereo not drawn)
inactive: dose: 100.0 mg/kg/injection, schedule: Q04DX002 (ip), vehicle: saline with Tween-80 97 % of control | dose: 200.0 mg/kg/injection, schedule: Q04DX002 (ip), vehicle: saline with Tween-80 101 % of control | dose: 400.0 mg/kg/injection, schedule: Q04DX002 (ip), vehicle: saline with Tween-80 100 % of control

O=C1OC(=O)C2CCCC1C2
inactive: [12] 108 % of control | [13] 102 % of control | [14] 102 % of control

O=c1[nH]c2ccc(Cl)cc2c2ccccc12
inactive: [12] 101 % of control | [13] 100 % of control | [14] 105 % of control

C[N+]1(CI)CC2CC(C1)C[N+](C)(CI)C2 (stereo not drawn)
inactive: [10] 105 % of control | [11] 110 % of control | [7] 108 % of control

COC1(OC)C=NNc2ncnn21
inactive: dose: 60.0 mg/kg/injection, schedule: Q01DX005 (ip), vehicle: saline 103 % of control | dose: 120.0 mg/kg/injection, schedule: Q01DX005 (ip), vehicle: saline 104 % of control | dose: 240.0 mg/kg/injection, schedule: Q01DX005 (ip), vehicle: saline 105 % of control

CCN(CC)CCC1CN(C(C)C)CC1(c1ccccc1)c1ccccc1 (stereo not drawn)
inactive: [7] 101 % of control | [8] 109 % of control | [9] 116 % of control

COc1cc2c(cc1OC)[C@H]1[C@@H](CO)c3ccc4c(c3CN1CC2)OCO4
inactive: dose: 50.0 mg/kg/injection, schedule: Q01DX005 (ip), vehicle: Klucel (hydroxypropylcellulose) (HPC) 109 % of control | dose: 100.0 mg/kg/injection, schedule: Q01DX005 (ip), vehicle: Klucel (hydroxypropylcellulose) (HPC) 92 % of control | dose: 200.0 mg/kg/injection, schedule: Q01DX005 (ip), vehicle: Klucel (hydroxypropylcellulose) (HPC) 92 % of control

O=C(NC(Cc1ccc(O)cc1)C(=O)O)C(=O)c1c[nH]c2ccccc12 (stereo not drawn)
inactive: [4] 96 % of control | [5] 97 % of control | [6] 100 % of control
